Reference: ChEMBL document CHEMBL5335818, “A MassQL-Integrated Molecular Networking Approach for the Discovery and Substructure Annotation of Bioactive Cyclic Peptides” (J Nat Prod, 2024)
Activity calls are given as the source filed them. The rule behind the calls is not given here.

What was measured:
[1] = target: Vasopressin V1a receptor (Homo sapiens) (UniProt P37288); assay: Antagonist activity at V1A receptor (unknown origin) assessed as reduction in AVP-induced V1A receptor signaling; assay type: functional
Chain of Vasopressin V1a receptor (Homo sapiens) (P37288 whole entry, looked up): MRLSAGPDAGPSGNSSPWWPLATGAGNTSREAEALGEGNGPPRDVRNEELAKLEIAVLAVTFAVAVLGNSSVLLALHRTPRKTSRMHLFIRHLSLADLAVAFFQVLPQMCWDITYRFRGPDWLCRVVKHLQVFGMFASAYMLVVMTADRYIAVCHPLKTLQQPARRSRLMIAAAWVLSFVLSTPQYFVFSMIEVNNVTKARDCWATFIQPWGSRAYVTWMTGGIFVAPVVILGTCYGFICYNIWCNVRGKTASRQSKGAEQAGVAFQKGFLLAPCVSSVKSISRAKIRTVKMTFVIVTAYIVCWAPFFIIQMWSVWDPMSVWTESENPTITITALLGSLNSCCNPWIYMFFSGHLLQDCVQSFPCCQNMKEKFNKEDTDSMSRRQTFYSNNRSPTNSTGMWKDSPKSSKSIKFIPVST

[2] = target: Vasopressin V1a receptor (Homo sapiens) (UniProt P37288); assay: Activation of endogenous V1A receptor signaling in HEK293 cells at 0.1 to 31.6 uM incubated for 16 mins by label-free DMR assay; assay type: functional, cell-based; conditions: dose 0.1-31.6 µM
[3] = target: Vasopressin V1a receptor (Homo sapiens) (UniProt P37288); assay: Activation of V1A receptor (unknown origin) mediated signaling transfected in HEK293 cells at 0.1 to 31.6 uM incubated for 16 mins by label-free DMR assay; assay type: functional, cell-based; conditions: dose 0.1-31.6 µM
[4] = target: Vasopressin V1a receptor (Homo sapiens) (UniProt P37288); assay: Antagonist activity at V1A receptor (unknown origin) transfected in HEK293 cells assessed as inhibition of AVP-induced cell activation at 1 to 31.6 uM incubated for 16 mins by label-free DMR assay; assay type: functional, cell-based; conditions: filed as antagonist, dose 1-31.6 µM
[5] = target: Vasopressin V1a receptor (Homo sapiens) (UniProt P37288); assay: Antagonist activity at V1A receptor (unknown origin) transfected in HEK293 cells assessed as inhibition of AVP-induced cell activation at 31.6 uM incubated for 16 mins by label-free DMR assay relative to control; assay type: functional, cell-based
[6] = target: Muscarinic acetylcholine receptor M3 (Homo sapiens) (UniProt P20309); assay: Antagonist activity at endogenous muscarinic M3 receptor in HEK293 cells assessed as inhibition of carbachol-induced cell activation at 1 to 31.6 uM incubated for 16 mins by label-free DMR assay; assay type: functional, cell-based; conditions: dose 1-31.6 µM
Chain of Muscarinic acetylcholine receptor M3 (Homo sapiens) (P20309 whole entry, looked up): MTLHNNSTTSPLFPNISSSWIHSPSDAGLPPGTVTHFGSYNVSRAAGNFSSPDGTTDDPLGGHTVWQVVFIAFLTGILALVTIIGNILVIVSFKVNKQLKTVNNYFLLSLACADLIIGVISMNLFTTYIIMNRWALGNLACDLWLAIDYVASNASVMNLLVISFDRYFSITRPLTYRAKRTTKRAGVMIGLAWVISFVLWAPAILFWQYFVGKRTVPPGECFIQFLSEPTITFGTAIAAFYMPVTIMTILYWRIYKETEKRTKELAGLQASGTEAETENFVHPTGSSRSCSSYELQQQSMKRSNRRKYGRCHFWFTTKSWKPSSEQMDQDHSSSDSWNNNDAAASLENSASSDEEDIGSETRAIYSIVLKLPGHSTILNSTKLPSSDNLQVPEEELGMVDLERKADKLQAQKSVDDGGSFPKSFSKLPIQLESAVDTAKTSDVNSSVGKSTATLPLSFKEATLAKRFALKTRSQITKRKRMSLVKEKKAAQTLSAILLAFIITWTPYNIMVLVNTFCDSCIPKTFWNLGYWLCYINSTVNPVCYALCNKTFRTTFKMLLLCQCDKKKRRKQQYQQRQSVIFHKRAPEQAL

CC(C)C[C@@H]1NC(=O)[C@H](Cc2ccoc2)N(C)C(=O)[C@H](C(C)C)NC(=O)[C@H](Cc2ccoc2)N(C)C1=O was tested, and the Activity [1] was “inactive”.
In the case of CC(C)C[C@@H]1NC(=O)[C@H](Cc2ccoc2)N(C)C(=O)[C@H](C(C)C)NC(=O)[C@@H]2CCCN2C1=O, the Activity [1] is reported as “inactive”.
CC(C)[C@@H]1NC(=O)[C@@H]2CCCN2C(=O)[C@H](Cc2ccoc2)NC(=O)[C@H](Cc2ccoc2)N(C)C1=O was tested, and the Activity ([1]; filed as antagonist) was “Active”, the Activity [2] was “inactive” and the Activity [3] was “inactive”. The Activity [4] was “Active”, the inhibition [5] was 22% and the Activity [6] was “inactive”.
